# What was measured:
# [1] = tested on: osteoblastic cell strain MC3T3-E1; assay: Calcified matrix formation (alizarin red) of cultured osteoblastic cell on differentiation medium; format: cell-based, mouse
# Procedure: Using an osteoblastic cell strain MC3T3-E1 originating from a mouse skull bone, an action to osteoblactic cell differentiation was checked. MC3T3-E1 cell was cultured on α-MEM (growth medium) containing 5% fetal bovine serum (FBS) and 10 μg/ml gentamicin. When the cell became confluent, the cell was collected using 0.25% trypsin solution, and was subjected to seeding to a 48-well plate at 1×10^4/0.5 mL/well with the growth medium. After 24 hours passed from the cultivation, the culture medium was replaced with a growth medium (differentiation medium) containing 50 μg/mL ascorbic acid, 10 mmol/L β-glycerosphoric acid, and 10 nmol/L dexamethasone. At the same time, CS-A, CS-B, CS-C, CS-E, CS-H or CPS was added to the medium. After 16 days passed from when the medium was replaced with the differentiation medium, a culture supernatant was eliminated, the cell was rinsed by PBS (−), dissolved by 1% Nonidet P-40 (NP-40, registered trademark), and a cell lysate was collected. The cell on a plate was fixed by 15% formalin, a calcified matrix was dyed by 40 mmol/L alizarin red dyeing (pH 4.2)[…], and rinsed by pure water. Alizarin red pigments in the plate were dissolved by 10% formic acid, and light absorption at a wavelength of 415 nm was observed.
# An osteoblastic cell strain MC3T3-E1 was cultured on α-MEM (growth medium) containing 5 FBS and 10 μg/mL gentamicin. When the cell became confluent, the cell was collected by 0.25 trypsin solution, and was subjected to seeding to a 96-well plate at 1×10^4/0.2 mL/well with the growth medium. After 24 hours incubation, the culture medium was replaced with a growth medium (differentiation medium) containing 50 μg/mL ascorbic acid, 10 mmol/L β-glycerophosphoric acid, and 10 nmol/L dexamethasone. At the same time, CS-A, CS-C or CS-D dissolved and diluted by a phosphate buffered saline (PBS (−)) was added to the medium. After 10 days passed from when the medium was replaced with the differentiation medium, a culture supernatant was eliminated, the cell was rinsed by PBS (−), and dissolved by 1% NP-40 (registered trademark), and a cell lysate was collected. The cell on the plate was fixed by 15% formalin, a calcified matrix was dyed by 40 mmol/L alizarin red dyeing (pH 4.2) liquid, and then rinsed by pure water. Alizarin red pigments in the plate were dissolved by 10% formic acid, and light absorption at a wavelength of 415 nm was observed.
# [2] = tested on: osteoblastic cell strain MC3T3-E1; assay: Growth of cultured osteoblastic cell (DNA amount, PicoGreen); format: cell-based, mouse; settings: MC3T3-E1, differentiation medium, 16 days (FIG. 4)
# Procedure: An osteoblastic cell strain MC3T3-E1 was cultured on α-MEM (growth medium) containing 5% FBS and 10 μg/mL gentamicin. When the cell became confluent, the cell was collected by 0.25% trypsin solution, and was subjected to seeding to a 96-well plate at 4×10^4/0.2 mL/well with the growth medium. After 24 hours incubation, the culture medium was replaced with a growth medium (differentiation medium) containing 50 μg/mL ascorbic acid, 10 mmol/L β-glycerophosphoric acid, and 10 nmol/L dexamethasone. At the same time, CS-A, CS-C, CS-D or CS-E used in the first example and the second example was dissolved and diluted by a phosphate buffered saline (PBS (−)), and then added to the medium. After 16 days passed from when the medium was replaced with the differentiation medium, a culture supernatant was eliminated, the cell was rinsed by PBS (−), and dissolved by 1% NP-40, and a cell lysate was collected.
# Regarding a measurement of a DNA amount, PicoGreen dsDNA Quantitation kit (made by Molecular Probes corporation) was used, and a DNA amount was measured from a fluorescence intensity (Ex: wavelength 485 nm, Em: wavelength 535 nm) with a Calf Thymus DNA (Sigma) being as a standard.
# [3] = tested on: osteoblastic cell strain MC3T3-E1; assay: Alkaline phosphatase (ALP) activity of cultured osteoblastic cell; format: cell-based, mouse; settings: MC3T3-E1, differentiation medium, 8 days, p-NP amount (FIG. 3)
# Procedure: An osteoblastic cell strain MC3T3-E1 was cultured on α-MEM (growth medium) containing 5% FBS and 10 μg/mL gentamicin. When the cell became confluent, the cell was collected by 0.25 trypsin solution, and was subjected to seeding to a 48-well plate at 8×10^4/0.5 mL/well with the growth medium. After 24 hours incubation, the culture medium was replaced with a growth medium (differentiation medium) containing 50 μg/mL ascorbic acid, 10 mmol/L β-glycerophosphoric acid, and 10 nmol/L dexamethasone. At the same time, CS-C or CS-E used in the first example was dissolved and diluted by a phosphate buffered saline (PBS (−)), and then added to the medium. After 8 days passed from when the medium was replaced with the differentiation medium, a culture supernatant was eliminated, the cell was rinsed by PBS (−), and dissolved by 1% NP-40 (registered trademark), and a cell lysate was collected.
# Regarding alkaline phosphatase (ALP) activity, a p-nitrophenol (p-NP) amount created by mixing the cell lysate with p-nitrophenylphosphate (Sigma) and by performing incubation on it for 10 minutes at 37° C. was measured at OD 415 nm, and a p-NP amount was calculated from an analytical curve.
# [4] = tested on: MC3T3-E1 cell; assay: Calcification of osteoblastic cell cultured on calcium phosphate (OCP or HA coating); format: cell-based, mouse
# Procedure: (§1) Octacalcium phosphate (OCP) and hydroxyapatite (HA, apaceram, made by pentax corporation) were broken into powders by a mortar, and powders which passed through a stainless mesh (pore size: 53 μm) were used for the test. 1 mg of OCP or HA powders were suspended in 1 mL of distilled water, and added to a 48-well plate 150 μL by 150 μL (0.15 mg/well). It was dried for one night at 80° C. by a dryer, sterilized by 70% ethanol, and used for the test.
# (§2) An MC3T3-E1 cell was cultured on α-MEM (growth medium) containing 5% FBS and 10 μg/mL gentamicin. When the cell became confluent, the cell was collected by 0.25 trypsin solution, and was subjected to seeding to a 48-well plate at 8×10^4/0.5 […] with the growth medium. […] Regarding a measurement of a DNA amount, PicoGreen dsDNA Quantitation kit (made by Molecular Probes corporation) was used, and a DNA amount was measured from a fluorescence intensity (Ex: wavelength 485 nm, Em: wavelength 535 nm) with a Calf Thymus DNA (Sigma) being as a standard.
# Regarding an evaluation of calcification, a calcified matrix produced by the cell on the plate was fixed by 15% formalin, dyed by 40 mmol/L alizarin red dyeing (pH 4.2) liquid, rinsed by deionization water, dissolved by 10% formic acid, and then light absorption was measured.
# [5] = tested on: MC3T3-E1 cell; assay: Growth of osteoblastic cell cultured on calcium phosphate (OCP or HA coating), DNA amount; format: cell-based, mouse
# Procedure: as §1
# as §2, with “medium. After 24 hours incubation, the culture medium was replaced with a growth medium (differentiation medium) containing 50 μg/mL ascorbic acid, 10 mmol/L β-glycerophosphoric acid, and 10 nmol/L dexamethasone, while at the same time CS-E was added.” for “medium.”
# [6] = tested on: swine knee joint cartilage cell; assay: Collagen synthesis of cultured cartilage cell in alginate gel beads (three-dimensional culturing); format: cell-based; settings: 100 μg/mL
# Description: A cartilage cell was separated from a swine knee joint cartilage as follow. A posterior leg of an LWD-kind pig about 1-year-old was purchased from SIMODA animal industry limited private company. After a knee joint was exposed, a joint cartilage of a femur was acquired aseptically. Thereafter, a cell originating from a joint cartilage (hereinafter, “cartilage cell”) was separated in accordance with a technique of Mok S. S. et al (J. Biol. Chem., 1994, 269, 33021 to 33027) while modifying some parts of such a technique.
# The acquired cartilage was put into DMEM/F-12 culture medium (a culture medium which contained Dulbecco's modified eagle and Ham's F12 at 1:1) containing 0.4% actinase (made by KAKEN pharmaceutical corporation) and 10 μg/mL gentamicin (made by Invitrogen corporation), and processed for 1 hour at 37° C. while being stirred by a stirrer under a condition where 5% of CO2 was present. After the culture medium was eliminated, a culture media containing 0.025% collagenase (made by Roche corporation) and 5% FBS (made by Biological Industries corporation) was added to a residue, and it was digested for 16 hours at 37° C. under the presence of 5% of CO2. After digested, the cell was rinsed, collected by 70 μm cell strainer (made by Becton Dickinson corporation), and a number of cells were measured using a counting chamber. […]
# [7] = 10 days, 96-well plate, absorption 415 nm (FIG. 2)
# [8] = 16th day of cultivation, 48-well plate, absorption 415 nm (FIG. 1)
Substance,"formation of a calcified matrix dyed by alizarin red [1, 7]",growth of an osteoblastic cell (DNA amount) [2],"formation of a calcified matrix dyed by alizarin red [1, 8]",other results
chondroitin sulfate D [CS-D],significantly promoted,not observed,,
chondroitin sulfate E [CS-E],,significantly promoted,significantly promoted,"ALP activity (osteoblastic cell differentiation marker) [3]: significantly enhanced; production of a calcified matrix dyed by alizarin red ([4]; HA coating, 12th day of cultivation (FIG. 5B)): promoted production of a calcified matrix; production of a calcified matrix dyed by alizarin red ([4]; OCP coating, 16th day of cultivation (FIG. 5A)): promoted production of a calcified matrix; growth of an osteoblastic cell (DNA amount) ([5]; HA coating (FIG. 6B)): not significant but a cell growth promoting action was observed; growth of an osteoblastic cell (DNA amount) ([5]; OCP coating, 16th day of cultivation (FIG. 6A)): significantly promoted; collagen content per twenty alginate gel beads ([6]; 6 days three-dimensional culturing (FIG. 7)): significantly increased; collagen content per DNA ([6]; 6 days three-dimensional culturing (FIG. 8)): significantly increased"
Chondroitin sulfate A [CS-A],not observed,not observed,not observed,
"chondroitin sulfate C [CS-C, reference compound]",not observed,not observed,not observed,ALP activity (osteoblastic cell differentiation marker) [3]: not observed
chondroitin sulfate H [CS-H],,,significantly promoted,
polysulfated chondroitin sulfate [CPS],,,significantly promoted,
chondroitin sulfate B [CS-B],,,not observed,

# From US20110129544A1, “Bone/Cartilage Formation-Stimulation Agent” (priority 2007, published 2011)
